Columns and labels:
Assay type in all cases: in vivo, human
[1] = test system: persistent Herpes 4 and Herpes 6 infections; test: Case Study 5: person with severe fatigue
Method: An active person had struggled with depression and obsessive-compulsive disorder in the past, but these problems were well-controlled with medications. They actively engaged in daily exercising, including skiing, bicycle riding, and vigorous walking. Suddenly, they developed severe fatigue. […] The patient was started on valacyclovir at a dose of 1000 mg two times per day orally. […] Then they were switched to famciclovir, titrating from 500 mg two times per day to 1000 mg two times per day orally. […] Within two months, the patient noted less fatigue.

[2] = test system: persistent Herpes 1 and Herpes 4 infections; test: Case Study 4: person with memory problems, dementia consistent with Alzheimer's disease; conditions: after six months
Method: A person presented for evaluation of memory problems. Cognitive testing was consistent with dementia. A SPECT functional brain scan was performed. The results were consistent with Alzheimer's disease. […] The patient was started on antiviral therapy with valacyclovir 1000 mg two times per day orally. The valacyclovir was stopped and famciclovir was started at 500 mg two times per day orally. After one month, the famciclovir was increased to 1000 mg two times per day orally. […] was added to their regimen at a dose of 500 mg two times per day orally. […] Family members were thrilled with the improvement.

[3] = test system: herpes 4 and 6 as persistent infections; test: Case Study 1: adult with CFS, anxiety and irritable bowel syndrome; conditions: valacyclovir 1000 mg two times per day orally, alone
Method: Antiviral therapy with valacyclovir at 1000 mg two times per day orally was begun. […] NTZ was added at 500 mg two times per day orally to the regimen.

[4] = test system: persistent Herpes 4 and 6 infections; test: Case Study 3: late-middle-aged person with Parkinson's disease symptoms and depression, perfusion SPECT; conditions: valacyclovir 1000 mg in the morning and 2000 mg at night orally; after three months
Text: FIGS. 1A-1B show perfusion SPECT scan from Case Study 3. […] Scale illustrates levels of perfusion with normal perfusion at the central light grey and decreased perfusion illustrated by progressively darker shades of grey.
A late-middle-aged person presented for evaluation of Parkinson's disease and depression. They had been diagnosed with Parkinson's disease by a neurologist based on clinical signs of tremor and bradykinesia. No neuroimaging had been done. […] A single-photon emission computed tomography (SPECT) brain perfusion scan and a dopamine transporter SPECT scan (DaTscan) were ordered. […] The patient was started on antiviral therapy with valacyclovir at 1000 mg two times per day orally. The dose was increased to 1000 mg orally in the morning and 2000 mg orally at night. […] A repeat perfusion SPECT brain scan was performed (FIG. 1B).

[5] = test system: persistent Herpes 4 and 6 infections; test: Case Study 2: adult with multiple symptoms of VIFD (CFS, fibromyalgia, pain)
Text: An adult presented with multiple symptoms of VIFD across multiple systems. They experienced fatigue, brain fog, and unrefreshing sleep consistent with CFS. They experienced muscle and joint pain with trigger point pain and exaggerated reactions to pain consistent with fibromyalgia. They experienced pelvic and vaginal pain, headaches, depression, anxiety, sore throat, painful lymph nodes, numbness, and generalized pain. The symptoms involved the central nervous system, the genitourinary system, the gastrointestinal system, the immune system, the musculoskeletal system and the peripheral nervous system. […] The dose of valacyclovir was increased to 2000 mg two times per day orally. […] NTZ was then added at 500 mg two times per day orally.

[6] = test system: Epstein-Barr virus and Herpes 1 virus; test: Case Study 6: person with severe depression, IBS, brain fog, fatigue, headaches, SPECT; conditions: valacyclovir 1000 mg two times per day orally; after three months
Text: Scale illustrates levels of perfusion in a different manner from FIG. 1. The dark grey central portion of the scale illustrates statistically normal perfusion in a given area relative to a normative database. Areas of progressively lighter grey to white illustrate areas which are 2 standard deviation (SD), 3 SD, and 4 SD below the mean of the normative database, respectively.
A person presented with a history of depression since their teen years. They were severely depressed upon presentation (Quick Inventory of Depressive Symptomatology scale 26/27) and spent most of their time in their bedroom in the basement of their parent's house. They had withdrawn from college and had never held a full-time job. Their condition was complicated by irritable bowel syndrome, brain fog, pervasive fatigue, and headaches. […] The patient also underwent a functional brain scan (single photon emission computed tomography—SPECT). […] The patient was started on the antiviral valacyclovir at 1000 mg two times per day orally. […] NTZ was added at a dose of 500 mg two times per day orally. After one month, the dose of NTZ was increased to 1000 mg two times per day orally.

In the case of `CC(C)[C@H](N)C(=O)OCC(CO)OCn1cnc2c(=O)nc(N)[nH]c21` (some centres unmarked) [valganciclovir], the “symptoms of severe fatigue” value ([1]; valganciclovir titrated from 450 mg to 900 mg two times per day, after four months) is reported as “without improvement”.

For `CC(=O)OCC(CCn1cnc2cnc(N)nc21)COC(C)=O` [famciclovir], the “symptoms of severe fatigue” value ([1]; famciclovir titrated from 500 mg to 1000 mg two times per day orally, after three months) was “no improvement”, the “memory function as reflected by scores on cognitive testing” value ([2]; famciclovir 500 mg then 1000 mg two times per day orally) was “modest improvement” and the daily memory function ([2]; famciclovir 1000 mg two times per day orally) was “struggled still with daily memory function”.

`CC(C)[C@H](N)C(=O)OCCOCn1cnc2c(=O)[nH]c(N)nc21` [valacyclovir] was tested, and the “symptoms of severe fatigue” value ([1]; valacyclovir 1000 mg bid orally, after four months increased to 2000 mg two times per day) was “did not improve”, the “brain fog, anxiety, bowel movements” value [3] was “still struggled with brain fog, anxiety, and frequent bowel movements” and the fatigue [3] was “modest improvement in fatigue”. The “need to nap on a daily basis” value [3] was “no longer needed to nap on a daily basis”, the depression symptoms [4] was “marked improvement” and the energy and motivation [4] was “improved energy and motivation”. For the same compound, the tremor and bradykinesia [4] was “continued to experience tremor and bradykinesia”, the symptoms ([5]; valacyclovir 1000 mg two times per day orally, over three months) was “minor improvement” and the symptoms ([5]; valacyclovir increased to 2000 mg two times per day orally) was “slight additional benefit”. For the same compound, the clarity of thinking [6] was “could think more clearly”, the depression [6] was “somewhat less depressed” and the fatigue [6] was “somewhat less fatigued”. The improvement in symptoms [6] was “roughly 20%”.
